Experimental data: ChEMBL document CHEMBL1128792, “Aromatic amino acid phosphoramidate di- and triesters of 3-azido-3-deoxythymidine (AZT) are non-toxic inhibitors of HIV-1 replication” (Bioorg Med Chem Lett, 1995)

Columns and labels:
[1] = tested on: CCRF-CEM; test: Cytotoxic concentration towards CEM cells; format: functional; settings: Homo sapiens
[2] = Effective molar concentration required to inhibit the replication of HIV-1 in human peripheral blood mononuclear cells by 50% (PBMC) was determined; format: functional
[3] = Cytotoxic concentration towards peripheral blood mononuclear cells; format: functional; settings: Homo sapiens
[4] = target: Human immunodeficiency virus type 1 reverse transcriptase (Human immunodeficiency virus 1, UniProt Q72547); test: Tested for the inhibition towards HIV-reverse transcriptase

| SMILES | CC50 [1] [µM] | EC50 [2] [nM] | CC50 [3] [µM] | IC50 [4] [µM] |
| --- | --- | --- | --- | --- |
| COC(=O)[C@H](Cc1ccccc1)NP(=O)(O)OCC1OC(n2cc(C)c(=O)[nH]c2=O)CC1N=[N+]=[N-] (stereo partly specified) | > 100 | 600 | > 100 | > 100 |
| Cc1cn([C@H]2C[C@H](N=[N+]=[N-])[C@@H](CO)O2)c(=O)[nH]c1=O [ZIDOVUDINE] | 14.3 | 80 | > 100 | 0.01 |
| COC(=O)[C@H](Cc1c[nH]c2ccccc12)NP(=O)(O)OC[C@H]1O[C@@H](n2cc(C)c(=O)[nH]c2=O)C[C@@H]1N=[N+]=[N-] | > 100 | 10 | > 100 | > 100 |
| COC(=O)[C@H](Cc1ccccc1)NP(=O)(OCCC#N)OCC1OC(n2cc(C)c(=O)[nH]c2=O)CC1N=[N+]=[N-] (stereo partly specified) | > 100 | > 1000 | > 100 | > 100 |
| COC(=O)[C@H](Cc1ccccc1)NP(=O)(OC)OCC1OC(n2cc(C)c(=O)[nH]c2=O)CC1N=[N+]=[N-] (stereo partly specified) | > 50 | 90 | > 100 |  |
| COC(=O)[C@H](Cc1c[nH]c2ccccc12)NP(=O)(OC)OCC1OC(n2cc(C)c(=O)[nH]c2=O)CC1N=[N+]=[N-] (stereo partly specified) | > 50 | 300 | > 50 |  |
| COC(=O)[C@H](Cc1c[nH]c2ccccc12)NP(=O)(OCCC#N)OCC1OC(n2cc(C)c(=O)[nH]c2=O)CC1N=[N+]=[N-] (stereo partly specified) | > 100 | 400 | > 100 | > 100 |
